# Measurements reported in US20250302840A1, “COMBINATION THERAPIES” (Janssen Pharmaceutica NV, priority 2021, published 2025).
# Counter-ions that a name gives are not always drawn. Marks after values point to notes of the source that are not given here.
# Legend:
# [1] = test system: iCell® Cardiomyocytes2; experiment: Ca2+-fluorescence assay in human pluripotent stem cell-derived cardiomyocytes (CTCM human); type: cell-based; design: key to Hazard scoring, Color @ 0.1 μM / Hazard scoring, Color @ 0.2 μM / Hazard scoring, Color @ 0.5 μM / Hazard scoring, Color @ 1 μM / Hazard scoring, Color @ 2.5 μM / Hazard scoring, Color @ 5 μM / Hazard scoring, Color @ 0.3 μM / Hazard scoring, Color @ 3 μM / Hazard scoring, Color @ 10 μM / Hazard scoring, Color @ 30 μM: Green: No concern; Yellow: Low concern; Red: High concern; Black: Very high concern due to arrhythmic events
# Method: Compounds were tested in the 96-well plates.
# Compounds were tested at 0.1 μM, 0.2 μM, 0.5 μM, 1 μM, 2.5 μM and 5 μM (n=4 per dose) on Cor.4U®-Cardiomyocytes or on iCell® Cardiomyocytes2.
# Alternatively, compounds were tested at 0.1 μM, 0.3 μM; 1 μM, 3 μM, 10 μM and 30 μM (n=4 per dose) mostly on iCell® Cardiomyocytes2.
# Vehicle control: Dimethylsulfoxide (DMSO). The solutions of the compound in DMSO or its solvent (final concentration of 0.1% DMSO; n=8).
# Tested compounds were dissolved in DMSO at 1000-fold the intended concentrations.
# A compound “mother-plate” was made, containing the test compounds and positive and negative controls at 1000-fold the final concentrations. At the experiment day, these stock solutions were diluted with Tyrode (Sigma), supplemented with 10 mM HEPES (Gibco), to 2-fold the intended concentration (in round bottom compound plates). Final DMSO concentration in test solutions and vehicle control was 0.1%.
# Second line hSC derived cardiomyocyte called iCell® Cardiomyocytes2 were purchased from FUJIFILM Cellular Dynamics (USA). The experiments with test drugs are carried out 5 to 7 days after plating the cells onto the plate to have a living, beating monolayer of hiPSC-derived cardiomyocytes. The beating monolayer in 96-well-plates are normally taken from 2 Vials of frozen iCell® Cardiomyocytes2 (˜5 million cells/vial), which will be plated onto […] 96-well plates (z50K/well).
# At least one hour before the start of the experiments the normal cell medium was replaced with Tyrode solution with Calcium dye (see below).
# Cal 520 dye (AAT Bioquest) was dissolved in 11 ml of Tyrode supplemented with 10 mM HEPES and warmed up to 37 C before adding to the cells.
# 35 μl cell culture medium was removed from each well and replaced with 35 μl of pre-warmed Cal 520 dye solution and cell plate was incubated for 45 min at 37° C./5% CO2. Cells were incubated for 5 min at 37° C.
# Spontaneous electrical activity is recorded, using Cal520™ (AAT Bioquest) calcium fluorescence-dye signalling. This dye integrates the total intracellular calcium activity over the whole well. A bottle of Cal520 dye ([…], MW: 1103/mol) is dissolved with 50 μl DMSO as a stock solution of 0.9 mM. 50 μL of the stock solution of the dye was added to 10 ml Tryodes solution to have dye concentration of 4.5 μM. Subsequently, 35 μl of this dye solution was added into each well, to have a final dye concentration of 1.58 μM. The current dye protocol on this CTCM human assay was established recently (Ivan Kopljar et al, Journal of Pharmacological and toxicological methods 2018. 91: 80-86; Lu et al., Tox Sci 2019. 170 (2): 345-356).
# Fluorescent signals (Ca^2+ transient morphology) were measured using the Functional Drug Screen System (FDSS/pCell; Hamamatsu, Japan) and the recordings were subsequently analyzed off-line, using appropriate software e.g., Notocord.
# The cell plate was loaded into the FDSS/pCell for a test run: Ca^2+ transients were measured for 4 minutes to check for synchronous beating of the cardiomyocytes in each well. All 96 wells were measured simultaneously (sampling interval: 0.06 s, short exposure time: 10 ms; excitation wavelength 480 nm; emission wavelength 540 nm; FDSS/pCell warmed to 37° C.).
# During the compound addition step, 100 μl of the respective double-concentrated test solutions was pipetted into each well simultaneously.
# Data were analyzed off-line using appropriate software e.g., Notocord-Hem (version 4.3).
# The following parameters of the Ca^2+ transient morphology were measured: • beat rate (BR) • amplitude of the Ca^2+ transient (Amp), • CTD90: Ca^2+ transient duration at 90% (time to 90% of the initial base value).
# The presence of various ‘arrhythmia-like’ activities were also noted during the experimental periods. […]
# [2] = test system: MOLM-13 tumors; experiment: Efficacy of combinations in MOLM-13 (KMT2a-r) IV model in NSG mice; type: in vivo; details: azacitidine 2 mg/kg ip QD × 7; venetoclax 100 mg/kg po QD × 28; Compound A1 10 mg/kg po QD × 28
# Method: Each mouse received an injection of 1×10^5 MOLM-13 cells, and all other parameters were conducted as described for experiment (10).
# [3] = Mouse PK (in vivo T1/2 and oral bioavailability); design: species or system CD-1 mice; details: for In vivo T1/2 (IV): IV 0.5 or 1.0 mg/kg
# Method: In vivo pharmacokinetics (PK) were assessed in fasted male CD-1 mice (age 6-8 weeks) following a single intravenous (IV, 0.5 or 1.0 mg/kg administered at 2.5 ml/kg) or oral (PO, 5 mg/kg administered at 10 ml solution/kg) dose of test article formulated in a 20% (w:vol) HP-β-CD solution or in Pyrogen free water.
# Plasma and/or whole blood samples were collected from the dorsal metatarsal vein at desired timepoints via serial capillary microsampling (approx. 0.03 mL) using EDTA as an anticoagulant. Concentrations of compound in the plasma and blood samples were analyzed using a qualified LC-MS/MS method. In silico analysis of main pharmacokinetic parameters was performed using WinNonlin (Phoenix™, version 6.1) or similar software.)
# [4] = test system: OCI-AML3 tumors; experiment: Efficacy of combinations in OCI-AML3 (NPM1c) IV model in NSG mice; type: in vivo; details: azacitidine 2 mg/kg ip QD × 7; venetoclax 100 mg/kg po QD × 28; Compound A1 30 mg/kg po QD × 28
# Method: Median survival was determined utilizing Kaplan-Meier survival analysis.
# [5] = efficacious dose in mouse xenograft models of 30 mg/kg, (mouse, human)
smiles,measurement,setting,value
"CCN(C(=O)c1cc(F)ccc1Oc1nncnc1N1CCC2(C1)CN([C@H](CCCNCCOC)C(C)C)C2)C(C)C [Compound 11, (R)—N-ethyl-5-fluoro-N-isopropyl-2-((5-(2-(6-((2-methoxyethyl)amino)-2-methylhexan-3-yl)-2,6-diazaspiro[3.4]octan-6-yl)-1,2,4-triazin-6-yl)oxy)benzamide]","Hazard scoring, Color @ 0.1 μM","[1]; 30 min incubation, Table 12",Green
same,"Hazard scoring, Color @ 0.3 μM","[1]; 30 min incubation, Table 12",Green
same,"Hazard scoring, Color @ 1 μM","[1]; 30 min incubation, Table 12",Green
same,"Hazard scoring, Color @ 3 μM","[1]; 30 min incubation, Table 12",Green
same,"Hazard scoring, Color @ 10 μM","[1]; 30 min incubation, Table 12",Green
same,"Hazard scoring, Color @ 30 μM","[1]; 30 min incubation, Table 12",Green
CCN(C(=O)c1cc(F)ccc1Oc1nncnc1N1CCC2(C1)CN([C@H](CCCN(C)CCOC)C(C)C)C2)C(C)C [Compound A1],"Hazard scoring, Color @ 0.1 μM","[1]; 30 min incubation, Table 12",Green
same,"Hazard scoring, Color @ 0.3 μM","[1]; 30 min incubation, Table 12",Green
same,"Hazard scoring, Color @ 1 μM","[1]; 30 min incubation, Table 12",Green
same,"Hazard scoring, Color @ 3 μM","[1]; 30 min incubation, Table 12",Green
same,"Hazard scoring, Color @ 10 μM","[1]; 30 min incubation, Table 12",Green
same,"Hazard scoring, Color @ 30 μM","[1]; 30 min incubation, Table 12",yellow
same,Margin CTCM human 10 μM vs free Cmax,[1]; [5],> 16
same,Margin CTCM human 30 μM vs free Cmax,[1]; [5],> 45
same,% ILS,[2],35* %
"CCN(C(=O)c1cc(F)ccc1Oc1nncnc1N1CCC2(C1)CN([C@H](CCCN(C)CCOC)C(C)C)C2)C(C)C [Compound A3, (R)—N-ethyl-5-fluoro-N-isopropyl-2-((5-(2-(6-((2-methoxyethyl) (methyl)amino)-2-methylhexan-3-yl)-2,6-diazaspiro[3.4]octan-6-yl)-1,2,4-triazin-6-yl)oxy) benzamide oxalate]","Hazard scoring, Color @ 0.1 μM","[1]; 30 min incubation, Table 11",Green
same,"Hazard scoring, Color @ 0.2 μM","[1]; 0.2 μM, 30 min incubation, Table 11",Green
same,"Hazard scoring, Color @ 0.5 μM","[1]; 0.5 μM, 30 min incubation, Table 11",Green
same,"Hazard scoring, Color @ 1 μM","[1]; 30 min incubation, Table 11",Green
same,"Hazard scoring, Color @ 2.5 μM","[1]; 2.5 μM, 30 min incubation, Table 11",Green
same,"Hazard scoring, Color @ 5 μM","[1]; 5 μM, 30 min incubation, Table 11",Green
same,In vivo T1/2 (IV),[3]; formulating agent Pyrogen free water,9.0 h
"CCN(C(=O)c1cc(F)ccc1Oc1nncnc1N1CCC2(C1)CN([C@H](CCCN(C)CCOC)C(C)C)C2)C(C)C [Compound A, (R)—N-ethyl-5-fluoro-N-isopropyl-2-((5-(2-(6-((2-methoxyethyl) (methyl)amino)-2-methylhexan-3-yl)-2,6-diazaspiro[3.4]octan-6-yl)-1,2,4-triazin-6-yl)oxy) benzamide]",In vivo T1/2 (IV),[3]; formulating agent HP-β-CD,6.7 h
same,Bioavailability (PO),"[3]; PO 5 mg/kg, formulating agent HP-β-CD",17%
"CC1(C)CCC(CN2CCN(c3ccc(C(=O)NS(=O)(=O)c4ccc(NCC5CCOCC5)c([N+](=O)[O-])c4)c(Oc4cnc5[nH]ccc5c4)c3)CC2)=C(c2ccc(Cl)cc2)C1 [Venetoclax, reference compound]",% ILS,[2],6%
same,% ILS,[4],0 (ns) %
